Assay results: patent US4153710A, “N-(4-[2-(pyrazole-1-carbonamide)-ethyl]-benzenesulphonyl)-urea” (Starogardzkie Zaklady Farmaceutyczne POLFA, priority 1976, dated 1979)

How the values were obtained:
insulin concentration [1] = assay: Insulin in normal men after a meal (Table 8); format: in vivo; conditions: for Insulin concentration: normal men, meal, oral 10 mg
Procedure: (§1) When administered to normal men volunteers it has been stated that 60 minutes after the administration of SPC-5002 a 5 mg oral dose causes the decrease in blood-glucose of 28% in comparision to the starting value and after 90 minutes it reaches 33% (Table 7). Whereas Glibornuride employed in a dose 2.5 times as big on peak of its activity decreases the glucose blood level only of 19%. It can clearly be noticed that there is a positive correlation between the glycemic and insulin level curves. Both examined preparations cause a significant decrease in free fatty acids in blood. […] 60 and 90 minutes after the SPC-5002 administration, the blood-glycose level is decreased to 33 and 52% while in the Placebo group it is maintained in the range of 13-14%.
(§2) The comparison of glucose concentration changes in voluntary-normal men
(§3) eaten a meal and the oral administration of 10 mg of SPC-5002 or Placebo

[2] = test system: blood-glucose concentration; assay: ED30 oral hypoglycemic dose in mice (Table 2); format: in vivo; conditions: Mus musculus, oral, read-out: Effective oral doses ED30
Procedure: (§4) The hypoglycemic activity of N-{4-[2-(pyrazole-1-carbonamide)-ethyl]-benzenesulphonyl}-ureas prepared according to the present invention can be noticed after their oral administration to mice, rats, rabbits and people and when determining the glucose concentration in blood with a known enzymatic method using glucose oxidase.
(§5) (Table 2). […] It has been observed that even 9 hours after the administration of one dose of SPC-5002 to rats, the glucose level in blood was decreased, whereas in the case of Glibornuride the glucose level comes back to its normal value in 6 hours from the time of the administration.

glucose concentration [3] = assay: Blood glucose in normal men after a meal (Table 8); format: in vivo; conditions: for blood-glycose level decrease: normal men after meal; for Glucose concentration / % of changes in glucose concentration: meal, oral 10 mg
Procedure: as §4, §1, §2, §3

[4] = Oral toxicity in rats (LD50); conditions: rat, in vivo
[5] = test system: blood-glucose concentration; assay: Blood-glucose time course up to 24 hours in rats (Table 3); format: in vivo; conditions: for glucose concentration in blood, average: oral 4 mg/kg
Procedure: as §4, §5
(§6) The comparison of SPC-5002 and Glibornuride effect on changes in
concentration of rats in time up to 24 hours from the moment of the
in an oral dose containing 4 mg/kg body weight

[6] = test system: blood-glucose concentration; assay: Blood-glucose time course up to 24 hours in rabbits (Table 4); format: in vivo; conditions: for glucose concentration in blood, average: oral 5 mg/kg
Procedure: as §4, with “oxidase. […]” for “oxidase.”
as §6
concentration of rabbits in time up to 24 hours from the moment of the
in an oral dose containing 5 mg/kg body weight

[7] = test system: blood-glucose concentration; assay: Decrease in blood-glucose concentration in rats after oral dose (Table 1; ED30 rats Table 2); format: in vivo; conditions: Rattus norvegicus, oral, read-out: Effective oral doses ED30
From the text: as §4
The exemplary comparison of effective doses (ED30) and the effect of oral dose size of the compounds prepared according to the present invention with Glibornuride, which is distinguished by its high effectiveness and good tolerance when administered to people, on the glucose concentration in the blood of rats, is given in Table 1.

[8] = test system: blood-glucose concentration; assay: ED30 oral hypoglycemic dose in rabbits (Table 2); format: in vivo; conditions: Oryctolagus cuniculus, read-out: Effective oral doses ED30
Procedure: as §4, §5

insulin concentration [9] = assay: Insulin in normal men volunteers (Table 7); format: in vivo; conditions: oral 5 mg SPC-5002 or 12.5 mg Glibornuride
Procedure: as §1
(§7) The comparison of glucose, insulin and free fatty acids concentration in
(§8) normal men after the oral administration of 5 mg of SPC-5002 or 12.5 mg

[10] = test system: free fatty acids concentration; assay: Free fatty acids in normal men volunteers (Table 7); format: in vivo; conditions: oral 5 mg SPC-5002 or 12.5 mg Glibornuride
Procedure: as §1, §7, §8

[11] = test system: blood-glucose concentration; assay: Hypoglycemic activity in three animal species versus Glibornuride; format: in vivo, mice, rats, rabbits; conditions: parenteral and oral
Procedure: as §4, §5

[12] = test system: oxidizing phosphorylation in mitochondria of a rat's liver; assay: Oxidizing phosphorylation of rat liver mitochondria; format: biochemical
Procedure: 2-oxoglutaran 2 mM, ADP 1 mM, mitochondria | protein 4 mg/m. […] The | oxidizing phosphorylation speed was determined by means of the measuremen | of hydrogen ion consumption. The calcium transmission to mitochondria was […]

glucose concentration [13] = assay: Blood glucose in normal men volunteers (Table 7); format: in vivo; conditions: for decrease in blood-glucose vs starting value: 5 mg oral; for Glucose concentration: oral 5 mg SPC-5002 or 12.5 mg Glibornuride
Procedure: as §4, §1, §7, §8

Structure (SMILES): Cc1ccn(C(=O)NCCc2ccc(S(=O)(=O)NC(=O)NC3CCCCC3)cc2)n1 [SPC-5002, N-{4-[2-(3-methylpyrazole-1-carbonamide)-ethyl]-benzenesulphonyl}-N'-cyclohexylourea]
- insulin concentration relative to placebo group (insulin concentration [1]; normal men after meal, 60 minutes): twice as high as that in the placebo group
- Insulin concentration (insulin concentration [1]; 0 mins (empty stomach)): 7 μU/cc
- Insulin concentration (insulin concentration [1]; 30 mins): 50 μU/cc
- Insulin concentration (insulin concentration [1]; 60 mins): 55 μU/cc
- Insulin concentration (insulin concentration [1]; 90 mins): 17 μU/cc
- Insulin concentration (insulin concentration [1]; 120 mins): 8 μU/cc
- Insulin concentration (insulin concentration [1]; 180 mins): 8 μU/cc
- ED30 [2]: 1.9 mg/kg
- blood-glycose level decrease (glucose concentration [3]; 60 minutes): 33%
- blood-glycose level decrease (glucose concentration [3]; 90 minutes): 52%
- glucose increase vs starting value (glucose concentration [3]; normal men, 30 minutes after the meal): 34%
- Glucose concentration (glucose concentration [3]; normal men, 0 mins (empty stomach)): 89 mg/100 cc
- % of changes in glucose concentration (glucose concentration [3]; normal men, 30 mins): +34%
- Glucose concentration (glucose concentration [3]; normal men, 30 mins): 119 mg/100 cc
- % of changes in glucose concentration (glucose concentration [3]; normal men, 60 mins): -33%
- Glucose concentration (glucose concentration [3]; normal men, 60 mins): 60 mg/100 cc
- % of changes in glucose concentration (glucose concentration [3]; normal men, 90 mins): -52%
- Glucose concentration (glucose concentration [3]; normal men, 90 mins): 43 mg/100 cc
- % of changes in glucose concentration (glucose concentration [3]; normal men, 120 mins): -21%
- Glucose concentration (glucose concentration [3]; normal men, 120 mins): 70 mg/100 cc
- % of changes in glucose concentration (glucose concentration [3]; normal men, 180 mins): 0%
- Glucose concentration (glucose concentration [3]; normal men, 180 mins): 89 mg/100 cc
- LD50 [4]: > 15000 mg/kg
- duration of decreased blood glucose after one dose ([5]; one dose): ≥ 9 h
- duration of hypoglycemic activity relative to Glibornuride ([5]; one dose): longer hypoglycemic activity than the administration of Glibornuride
- glucose concentration in blood, average ([5]; 0 h): 82 mg/100 cc
- glucose concentration in blood, average ([5]; 1 h): 58 mg/100 cc
- glucose concentration in blood, average ([5]; 3 h): 45 mg/100 cc
- glucose concentration in blood, average ([5]; 6 h): 65 mg/100 cc
- glucose concentration in blood, average ([5]; 9 h): 70 mg/100 cc
- glucose concentration in blood, average ([5]; 24 h): 85 mg/100 cc
- effectiveness and duration relative to Glibornuride [6]: more effective and longer activity in comparison to Glibornuride
- glucose concentration in blood, average ([6]; 0 h): 71 mg/100 cc
- glucose concentration in blood, average ([6]; 0.5 h): 57 mg/100 cc
- glucose concentration in blood, average ([6]; 1 h): 59 mg/100 cc
- glucose concentration in blood, average ([6]; 3 h): 63 mg/100 cc
- glucose concentration in blood, average ([6]; 6 h): 62 mg/100 cc
- glucose concentration in blood, average ([6]; 9 h): 62 mg/100 cc
- glucose concentration in blood, average ([6]; 24 h): 70 mg/100 cc
- ED30 [7]: 2.2 mg/kg
- ED30 [8]: 5.5 mg/kg
- Insulin concentration (insulin concentration [9]; 0 mins (empty stomach)): 4.0 μU/cc
- Insulin concentration (insulin concentration [9]; 30 mins): 9.2 μU/cc
- Insulin concentration (insulin concentration [9]; 60 mins): 13.5 μU/cc
- Insulin concentration (insulin concentration [9]; 90 mins): 7.3 μU/cc
- Insulin concentration (insulin concentration [9]; 120 mins): 5.0 μU/cc
- Insulin concentration (insulin concentration [9]; 180 mins): 3.2 μU/cc
- Free fatty acids concentration ([10]; 0 mins (empty stomach)): 0.63 mEq/1000 cc
- Free fatty acids concentration ([10]; 30 mins): 0.48 mEq/1000 cc
- Free fatty acids concentration ([10]; 60 mins): 0.46 mEq/1000 cc
- Free fatty acids concentration ([10]; 90 mins): 0.48 mEq/1000 cc
- Free fatty acids concentration ([10]; 120 mins): 0.51 mEq/1000 cc
- Free fatty acids concentration ([10]; 180 mins): 0.52 mEq/1000 cc
- hypoglycemic activity relative to Glibornuride [11]: about twice as active as Glibornuride
- effect on oxidizing phosphorylation ([12]; 0.05 nM): no effect
- % of inhibition, oxidizing phosphorylation ([12]; concentration 0.05 n M): 0%
- % of inhibition, oxidizing phosphorylation ([12]; concentration 0.1 n M): 15%
- % of inhibition, oxidizing phosphorylation ([12]; concentration 0.3 n M): 21%
- % of inhibition, oxidizing phosphorylation ([12]; concentration 0.5 n M): 38%
- % of inhibition, oxidizing phosphorylation ([12]; concentration 0.7 n M): 63%
- % of inhibition, oxidizing phosphorylation ([12]; concentration 1.0 n M): 74%
- Ki ([12]; rat liver mitochondria): 600 µM
- decrease in blood-glucose vs starting value (glucose concentration [13]; 60 minutes): 28%
- decrease in blood-glucose vs starting value (glucose concentration [13]; 90 minutes): 33%
- Glucose concentration (glucose concentration [13]; 0 mins (empty stomach)): 96.8 mg/100 cc
- Glucose concentration (glucose concentration [13]; 30 mins): 88.5 mg/100 cc
- Glucose concentration (glucose concentration [13]; 60 mins): 69.0 mg/100 cc
- Glucose concentration (glucose concentration [13]; 90 mins): 65.5 mg/100 cc
- Glucose concentration (glucose concentration [13]; 120 mins): 76.5 mg/100 cc
- Glucose concentration (glucose concentration [13]; 180 mins): 79.7 mg/100 cc
